Data on one compound can be found in patent US20110098221A1, “INHIBITORS OF Akt ACTIVITY” (priority 2008, published 2011).

Structures are written as SMILES.

The target of this experiment is T1, full length AKT1 (Homo sapiens, UniProt P31749).
T1 construct: His tag (from vector pFastBacHTb) (N); made in house; host or cells: baculovirus; Sf9 / T. ni insect cells
The experiment is described as follows: Full-length AKT enzyme assay (substrate phosphorylation, SPA). It counts as biochemical. The settings on record: in at least one experimental run; pIC50 = -log(IC50), IC50 in molar units; 4 uM ATP, 10 nM activated enzyme; read-out: pIC50 against full length AKT1 (converted).

T1 sequence (P31749 whole entry): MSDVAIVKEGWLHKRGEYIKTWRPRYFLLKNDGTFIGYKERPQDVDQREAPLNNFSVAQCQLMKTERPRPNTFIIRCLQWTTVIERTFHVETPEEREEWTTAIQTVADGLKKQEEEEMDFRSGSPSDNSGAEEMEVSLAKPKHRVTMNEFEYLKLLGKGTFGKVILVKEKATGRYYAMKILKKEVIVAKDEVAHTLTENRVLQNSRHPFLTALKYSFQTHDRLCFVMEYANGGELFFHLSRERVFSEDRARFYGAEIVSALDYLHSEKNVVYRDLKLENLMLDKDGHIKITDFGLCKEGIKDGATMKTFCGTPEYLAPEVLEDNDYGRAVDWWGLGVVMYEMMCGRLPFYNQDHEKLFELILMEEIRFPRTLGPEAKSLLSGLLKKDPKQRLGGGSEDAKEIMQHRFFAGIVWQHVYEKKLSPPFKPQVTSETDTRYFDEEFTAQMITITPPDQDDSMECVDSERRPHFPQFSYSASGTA

Turning to `Cn1nccc1-c1cnc(C(=O)N[C@H](CN)Cc2cccc(F)c2)s1` [Example 1, N-{(1S)-2-amino-1-[(3-fluorophenyl)methyl]ethyl}-5-(1-methyl-1H-pyrazol-5-yl)-1,3-thiazole-2-carboxamide], the IC50 is 6.31 nM.
